{"source": "patent US20120283283A1", "about": "“METHODS FOR DETECTING ENHANCED RISK OF OPIOID-INDUCED HYPOXIA IN A PATIENT” (priority 2011, published 2012)", "tested_on": "patients with moderate to severe postoperative pain following bunionectomy surgery", "experiment": "Three double blind, randomized clinical studies (007, 008, 021): oxygen desaturation (SpO2<90%) by pulse oximetry during 48 hour treatment", "settings": "for median number of episodes of SpO2<90%: patients who experienced oxygen desaturation", "protocol": "Oxygen saturation was measured continuously during baseline and the 48 hour treatment periods using pulse oximetry. The total number and percentage of patients with oxygen desaturation (SpO2<90%) were recorded at: 0, 15, 30 and 45 minutes, and 1, 2, 3, 4, 5, 6 and 8 hours after study drug administration; at the time of administration of subsequent doses of study medication; at the time of administration of supplemental analgesic medication; 1 hour after administration of study medication; and whenever a desaturation occurred during the dosing period.\nRespiration rate (<10 breaths/min, 10-12 breaths/min, >12 breaths/min) was summarized at the same time points as the SpO2 recordings. Cumulative MED was determined at the time of the first episode of SpO2<90%. All desaturations and use of supplemental oxygenation, use of narcotic antagonists against respiratory impairment, and respiratory related serious adverse events (SAEs) were recorded.\nIn subjects with oxygen desaturation the following data was recorded: cumulative MED at first desaturation; mean desaturation values; number of desaturation episodes; and total duration of desaturation episodes.\nSome patients in the three clinical studies were enrolled who resided near study sites that are located at an altitude of about or over 4000 feet above sea level."}
{"smiles": "CN1CC[C@]23c4c5ccc(O)c4O[C@H]2[C@@H](O)C=C[C@H]3[C@H]1C5.O=S(=O)(O)O", "note": "[morphine, morphine sulfate]", "values": [{"measurement": "median number of episodes of SpO2<90%", "result": 2.0}]}
{"smiles": "COc1ccc2c3c1O[C@H]1C(=O)CC[C@@]4(O)[C@@H](C2)N(C)CC[C@]314.Cl", "note": "[oxycodone, oxycodone hydrochloride]", "values": [{"measurement": "incidence of desaturation (SpO2<90%)", "setting": "12 mg MED, lower elevation / non-high altitude sites", "result": 1.6, "unit": "%"}, {"measurement": "cumulative dose before experiencing an oxygen desaturation event (SpO2<90%)", "setting": "cumulative MED at first desaturation", "result": 24, "unit": "mg"}, {"measurement": "incidence of desaturation at high elevation site compared to lower sites", "setting": "morphine or oxycodone alone", "result": "ten-fold greater"}, {"measurement": "median number of episodes of SpO2<90%", "result": 2.0}]}
